{"source": "patent US20210361618A1", "about": "“TRIPLET COMBINATION FORMULATIONS AND METHODS FOR TREATING OR REDUCING THE RISK OF CARDIOVASCULAR DISEASE” (priority 2017, published 2021)", "key": {"[1]": {"system": "LDL-C", "experiment": "Integrated analysis of six Phase 2 studies of Bempedoic acid", "assay_type": "in vivo, human", "conditions": "for LDL-C placebo-adjusted LS means for percent change from baseline: integrated analysis of six Phase 2 studies", "description": "Doses of Bempedoic acid ranging from 40 to 240 mg/day have been evaluated in the Phase 2 program. Based on data from the integrated analysis of safety and efficacy, observed values and percent change from baseline in the primary efficacy endpoint, LDL-C, together with a positive safety profile, support the choice of the 180-mg dose for the Phase 3 studies. […] Overall, balancing efficacy and safety, the 180-mg dose was chosen for the Phase 3 program."}, "[2]": {"system": "patients", "experiment": "Phase 1 and 2 clinical trials of bempedoic acid: adverse events of special interest", "assay_type": "in vivo, human", "conditions": "Phase 1 or 2 clinical trials to date"}, "[3]": {"system": "monkey", "experiment": "Preclinical monkey studies (hypoglycemia and metabolic acidosis)"}}, "data": [{"smiles": "CC(C)(CCCCCC(O)CCCCCC(C)(C)C(=O)O)C(=O)O", "note": "[Bempedoic acid, 8-hydroxy-2,2,14,14 tetramethylpentadecanedioic acid]", "values": [{"measurement": "safety profile of the 180-mg dose", "setting": "[1]; Phase 2 program, 180 mg", "value": "excellent safety profile"}, {"measurement": "LDL-C placebo-adjusted LS means for percent change from baseline", "setting": "[1]; 180 mg on top of stable statin therapy", "value": "~22", "unit": "%"}, {"measurement": "LDL-C placebo-adjusted LS means for percent change from baseline", "setting": "[1]; Bempedoic acid 180 mg, monotherapy or with Ezetimibe 10 mg", "value": "approximately 32%"}, {"measurement": "cases of hypoglycemia or metabolic acidosis", "setting": "[2]", "value": "No cases"}, {"measurement": "outcome of hypoglycemia and metabolic acidosis", "setting": "[3]", "value": "monkey deaths"}]}]}
